Assay results from US20240082238A1, “COMPOSITIONS AND METHODS FOR TREATING CANCER” (UNIVERSITY OF IOWA RESEARCH FOUNDATION, priority 2021, published 2024).

What was measured:
human Topo I = molecular target: T1, human Topo I (Homo sapiens, UniProt P11387); test: Topoisomerase I inhibition assay (plasmid-based); format: biochemical; settings: drug final concentration 100 μM
T1 construct: purchased TopoGEN Inc. TG1015-1A
T1 sequence (P11387 1-765): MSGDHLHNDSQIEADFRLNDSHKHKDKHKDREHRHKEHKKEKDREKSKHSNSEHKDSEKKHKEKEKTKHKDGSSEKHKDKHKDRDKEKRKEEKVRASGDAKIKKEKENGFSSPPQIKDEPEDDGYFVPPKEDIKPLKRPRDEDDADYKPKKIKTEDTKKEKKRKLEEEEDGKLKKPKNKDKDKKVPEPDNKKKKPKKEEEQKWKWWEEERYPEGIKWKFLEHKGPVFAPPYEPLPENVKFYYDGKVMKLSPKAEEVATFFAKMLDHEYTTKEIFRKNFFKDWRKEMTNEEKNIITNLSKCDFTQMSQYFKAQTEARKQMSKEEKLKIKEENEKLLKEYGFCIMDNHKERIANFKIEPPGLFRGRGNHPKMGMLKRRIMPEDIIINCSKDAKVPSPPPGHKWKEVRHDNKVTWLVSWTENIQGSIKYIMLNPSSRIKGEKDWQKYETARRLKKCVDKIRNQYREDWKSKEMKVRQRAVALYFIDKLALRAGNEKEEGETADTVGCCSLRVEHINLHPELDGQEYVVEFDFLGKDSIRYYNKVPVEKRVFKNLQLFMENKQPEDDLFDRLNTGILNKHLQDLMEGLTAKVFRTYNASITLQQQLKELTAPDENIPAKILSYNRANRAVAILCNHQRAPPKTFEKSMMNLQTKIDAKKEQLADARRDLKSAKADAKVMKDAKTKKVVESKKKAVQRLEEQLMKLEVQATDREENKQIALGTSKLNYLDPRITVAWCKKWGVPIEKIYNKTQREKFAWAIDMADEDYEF
Protocol: Topoisomerase I inhibition assay. A plasmid-based Topo I assay (Cat. No. TG1015-1A, TopoGEN Inc., Buena Vista, CO) was performed according to the manufacturer's instructions. Briefly, 1 μL of the test compounds (PTX, CIP, CIP2b, or CAM) at a concentration of 2 mM, was mixed with 2 μL of the reaction buffer (10× tris-glycine-SDS), and deionized water was added to make 18 μL solution. This was followed by adding 1 μL of supercoiled DNA (SC DNA) and 1 μL of human Topo I (10 U/μL) (drug final concentration was 100 μM). Also, SC DNA±Topo I was used as a control (i.e., not containing drugs). In addition, relaxed DNA was added as another control in this assay. Samples were incubated on a heating block (Isotemp 125 D Digital Heat Block, ThermoFisher Scientific) set at 37° C. for 30 minutes. Then, the reaction was stopped by adding a 5× stop buffer. Samples were then loaded directly into the wells of a 1% agarose gel (Research Products International, Mount Prospect, IL). The gel was run at 150 V until the dye front had traveled approximately 5 cm (run time was approximately 2 hours). The gel was then stained with 1 μg/mL ethidium bromide in deionized water for 15 minutes, and this was followed by de-staining (washing) with deionized water for 30 min before imaging. The image was then taken using an Invitrogen iBright CL 1500 Imaging System (ThermoFisher Scientific). The intensity of the final bands in the gel was quantified using ImageJ, and the results are expressed as the percentage of Topo I inhibition.

cancer cell lines = test: Cytotoxicity (MTS), CIP2b with checkpoint inhibitors; format: cell-based; settings: AZD7762 50 and 75 nM; MK1775 150 and 250 nM
Protocol: (§1) Cytotoxicity assay. Hec50co cells were seeded at 1500 cells per well in 96-well plates for 24 h in a complete medium. Later, the medium was removed and PTX, CIP2b, or CIP (all dissolved in DMSO and diluted in complete medium) were added to cells as either monotherapies or in combinations, and the plates were incubated for 72 hours. Then, the complete medium was removed and MTS reagent in the complete medium was added to wells, and the plates were incubated for 1-4 hours according to the manufacturer's protocol. Finally, the absorbance was recorded at 490 nm using a Spectra Max plus 384 Microplate Spectrophotometer (Molecular Devices, Sunnyvale, CA). Percentage cell viability was expressed as the average absorbance of the test group relative to that of the control group (untreated cells). The concentration that inhibits proliferation of 50% of cells compared to control (IC50) was calculated using GraphPad Prism (La Jolla, CA). Synergism was detected following the Chou-Talalay method (CI<1 indicates synergism) (Chou T C. Cancer research. 2010; 70(2):440-6, doi: 10.1158/0008-5472.CAN-09-1947) using CompuSyn software (Ver. 1.0).
Cytotoxicity was evaluated using the MTS assay described above.

human Topo IIα = molecular target: T2, human Topo IIα (Homo sapiens, UniProt P11388); test: Topoisomerase II inhibition assay (plasmid-based); format: biochemical; settings: drug final concentration 100 μM; read-out: percentage of Topo II inhibition
T2 construct: purchased TopoGEN Inc. TG1001-1A
Protocol: Topoisomerase II inhibition assay. A plasmid-based Topo II assay (Cat. No. TG1001-1A, TopoGEN Inc., Buena Vista, CO) was performed according to the manufacturer's instructions. In this experiment, 1 μL of tested compounds (PTX, CIP, CIP2b, ETO) at a concentration of 2 mM was mixed with 4 μL of the reaction buffer (mixture of buffer A (0.5 M Tris-HCl (pH 8), 1.50 M NaCl, 100 mM MgCl2, 5 mM Dithiothreitol, 300 μg BSA/mL) and buffer B (10× ATP Buffer), and deionized water was added to make 18 μL solution. This was followed by adding 1 μL of catenated DNA and 1 μL of human Topo IIα (8 U/μL) (drug final concentration was 100 μM). Additionally, decatenated DNA (De-CT DNA) and catenated DNA (CT DNA)±Topo II were used as a control (i.e., not containing drugs). Moreover, relaxed DNA was added as another control in this assay. Similar to Topo I assay, samples were then incubated on a heating block set at 37° C. for 30 minutes. Then, the reaction was stopped by the addition of a 5× stop buffer. Samples were then loaded directly into the wells of a 1% agarose gel containing 1 μg/mL ethidium bromide. The gel was run at 150 V until the dye front had traveled approximately 5 cm (run time was approximately 2 h). The gel was then washed with deionized water for 30 minutes before imaging. The image was taken using an Invitrogen iBright CL1500 Imaging System. The intensity of the final bands in the gel was quantified using ImageJ, and the results are expressed as the percentage of Topo II inhibition.

Hec50co cells = test: Cytotoxicity assay (MTS), Hec50co cells; format: cell-based, human; settings: 10 μM CIP added to PTX, 72 h
Protocol: as §1, with “1.0). […]” for “1.0).”

[1] = system: advanced pancreatic ductal adenocarcinoma (PDAC); settings: patients with advanced PDAC; cited from earlier work

T2 sequence (P11388 whole entry): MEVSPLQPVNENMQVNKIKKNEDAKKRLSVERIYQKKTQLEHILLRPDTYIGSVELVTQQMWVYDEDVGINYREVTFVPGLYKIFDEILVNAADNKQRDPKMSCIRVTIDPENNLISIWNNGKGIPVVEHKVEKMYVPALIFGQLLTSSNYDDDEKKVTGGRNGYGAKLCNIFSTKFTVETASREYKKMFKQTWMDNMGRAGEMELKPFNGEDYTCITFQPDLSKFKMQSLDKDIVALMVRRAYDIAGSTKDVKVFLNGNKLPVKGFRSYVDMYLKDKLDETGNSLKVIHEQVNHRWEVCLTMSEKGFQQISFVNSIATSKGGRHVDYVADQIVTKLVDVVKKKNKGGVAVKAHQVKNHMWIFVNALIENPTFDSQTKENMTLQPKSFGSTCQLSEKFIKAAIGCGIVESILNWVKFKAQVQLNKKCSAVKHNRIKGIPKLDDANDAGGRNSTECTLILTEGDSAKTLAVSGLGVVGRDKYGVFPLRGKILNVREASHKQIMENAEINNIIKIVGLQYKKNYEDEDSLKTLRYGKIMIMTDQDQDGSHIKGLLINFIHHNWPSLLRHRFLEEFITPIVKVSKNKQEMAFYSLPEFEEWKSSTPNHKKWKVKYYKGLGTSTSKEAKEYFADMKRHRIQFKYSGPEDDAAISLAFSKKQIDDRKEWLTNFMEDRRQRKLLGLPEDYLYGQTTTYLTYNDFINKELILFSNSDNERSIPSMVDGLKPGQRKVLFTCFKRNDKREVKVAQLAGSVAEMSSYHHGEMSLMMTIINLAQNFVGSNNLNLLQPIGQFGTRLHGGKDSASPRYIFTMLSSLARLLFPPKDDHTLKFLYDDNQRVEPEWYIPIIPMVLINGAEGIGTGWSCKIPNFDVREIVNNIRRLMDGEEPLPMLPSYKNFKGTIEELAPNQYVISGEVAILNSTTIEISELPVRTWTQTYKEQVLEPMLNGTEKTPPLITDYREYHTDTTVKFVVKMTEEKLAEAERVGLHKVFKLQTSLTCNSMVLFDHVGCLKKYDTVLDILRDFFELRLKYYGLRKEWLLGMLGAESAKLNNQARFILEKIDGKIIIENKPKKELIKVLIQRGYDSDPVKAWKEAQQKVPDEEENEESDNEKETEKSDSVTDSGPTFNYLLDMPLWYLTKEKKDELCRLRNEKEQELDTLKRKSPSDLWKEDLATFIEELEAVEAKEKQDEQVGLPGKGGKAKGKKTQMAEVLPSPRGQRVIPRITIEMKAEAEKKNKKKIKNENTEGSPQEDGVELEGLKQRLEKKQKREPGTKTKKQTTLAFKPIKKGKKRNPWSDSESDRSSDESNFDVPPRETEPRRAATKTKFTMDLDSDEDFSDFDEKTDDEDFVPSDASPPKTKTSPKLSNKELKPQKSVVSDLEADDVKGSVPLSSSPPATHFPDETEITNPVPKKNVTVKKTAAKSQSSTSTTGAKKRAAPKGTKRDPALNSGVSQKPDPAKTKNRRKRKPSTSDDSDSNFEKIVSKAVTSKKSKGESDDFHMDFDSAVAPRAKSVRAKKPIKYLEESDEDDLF

inhibition at 100 µM (human Topo IIα) [%] | Compound | Topo I inhibitory activity (gel) (human Topo I) | potentiation or synergism in combination with CIP2b (cancer cell lines) | other results
 | CC[C@@]1(O)C(=O)OCc2c1cc1n(c2=O)Cc2cc3ccccc3nc2-1 [CAM, camptothecin] | potent inhibitor of Topo I |  | 
 | C=CCn1c(=O)c2cnc(Nc3ccc(N4CCN(C)CC4)cc3)nc2n1-c1cccc(C(C)(C)O)n1 [MK1775, adavosertib] |  | did not show any noticeable potentiation or synergism | 
 | NC(=O)Nc1cc(-c2cccc(F)c2)sc1C(=O)N[C@H]1CCCNC1 [AZD7762] |  | did not show any noticeable potentiation or synergism | 
~96 | COc1cc([C@@H]2c3cc4c(cc3[C@@H](O[C@@H]3O[C@@H]5CO[C@@H](C)O[C@H]5[C@H](O)[C@H]3O)[C@H]3COC(=O)[C@H]23)OCO4)cc(OC)c1O [ETO, etoposide] |  |  | 
62 | O=C(O)c1cn(C2CC2)c2cc(N3CCNCC3)c(F)cc2c1=O [CIP, ciprofloxacin] | neither PTX nor CIP did inhibit Topo I |  | survival curve of PTX with added compound vs PTX alone (Hec50co cells): superimposed
 | Nc1ccn([C@@H]2O[C@H](CO)[C@@H](O)C2(F)F)c(=O)n1 [gemcitabine] |  |  | median survival [1]: 6.7-6.8 months
